From publication PMC4774911, “Biochemical Screening of Five Protein Kinases from Plasmodium falciparum against 14,000 Cell-Active Compounds” (PLoS ONE, 2016)

Assays:
[1] = tested on: DD2; parameters: method as in F.J. Gamo et al., Nature 2010; conditions: P. falciparum Dd2; downloaded from ChEMBL ref F.J. Gamo et al., Nature 2010; cited from earlier work
[2] = tested on: 3D7 PFLDH; parameters: method as in F.J. Gamo et al., Nature 2010; conditions: downloaded from ChEMBL ref F.J. Gamo et al., Nature 2010; cited from earlier work
[3] = molecular target: PKG (Plasmodium falciparum, UniProt Q8I719); assay: PKG IC50 (supplementary data file of hits); format: biochemical
Chain of PKG (Q8I719 whole entry): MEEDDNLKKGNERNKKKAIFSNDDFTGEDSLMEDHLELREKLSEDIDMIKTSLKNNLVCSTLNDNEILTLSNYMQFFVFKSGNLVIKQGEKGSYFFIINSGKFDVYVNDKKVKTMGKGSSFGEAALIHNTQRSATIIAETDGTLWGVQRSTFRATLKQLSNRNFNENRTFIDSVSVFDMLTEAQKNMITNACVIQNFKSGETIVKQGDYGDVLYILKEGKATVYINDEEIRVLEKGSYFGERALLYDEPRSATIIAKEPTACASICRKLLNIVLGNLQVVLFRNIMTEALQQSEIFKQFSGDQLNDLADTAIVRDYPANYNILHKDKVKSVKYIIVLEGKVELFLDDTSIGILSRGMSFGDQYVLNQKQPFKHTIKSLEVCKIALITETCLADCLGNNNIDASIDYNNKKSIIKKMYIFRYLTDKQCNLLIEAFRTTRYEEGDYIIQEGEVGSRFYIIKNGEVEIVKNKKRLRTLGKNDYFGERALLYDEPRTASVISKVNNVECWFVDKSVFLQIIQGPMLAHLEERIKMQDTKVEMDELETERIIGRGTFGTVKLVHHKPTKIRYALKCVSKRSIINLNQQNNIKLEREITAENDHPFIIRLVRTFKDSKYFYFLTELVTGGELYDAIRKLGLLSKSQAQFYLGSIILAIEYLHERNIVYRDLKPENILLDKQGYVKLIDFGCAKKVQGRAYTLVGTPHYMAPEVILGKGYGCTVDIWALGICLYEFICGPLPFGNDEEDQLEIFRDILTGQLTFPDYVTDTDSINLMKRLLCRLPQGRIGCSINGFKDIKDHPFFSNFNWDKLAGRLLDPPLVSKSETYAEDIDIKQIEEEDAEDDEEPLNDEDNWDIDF
Excerpt: Supplement pone.0149996.s003.xls, sheet "combined_1_sorted"

[4] = molecular target: T1, Plasmodium falciparum calcium-dependent protein kinase 1 (CDPK1) (Plasmodium falciparum, UniProt P62344); assay: CDPK1 Kinase-Glo ATP-consumption screen and dose-response; format: biochemical; conditions: hits below 1 uM; read-out: CDPK1 IC50
T1 construct: 6-Histidine (N); made in house
T1 sequence (P62344 whole entry): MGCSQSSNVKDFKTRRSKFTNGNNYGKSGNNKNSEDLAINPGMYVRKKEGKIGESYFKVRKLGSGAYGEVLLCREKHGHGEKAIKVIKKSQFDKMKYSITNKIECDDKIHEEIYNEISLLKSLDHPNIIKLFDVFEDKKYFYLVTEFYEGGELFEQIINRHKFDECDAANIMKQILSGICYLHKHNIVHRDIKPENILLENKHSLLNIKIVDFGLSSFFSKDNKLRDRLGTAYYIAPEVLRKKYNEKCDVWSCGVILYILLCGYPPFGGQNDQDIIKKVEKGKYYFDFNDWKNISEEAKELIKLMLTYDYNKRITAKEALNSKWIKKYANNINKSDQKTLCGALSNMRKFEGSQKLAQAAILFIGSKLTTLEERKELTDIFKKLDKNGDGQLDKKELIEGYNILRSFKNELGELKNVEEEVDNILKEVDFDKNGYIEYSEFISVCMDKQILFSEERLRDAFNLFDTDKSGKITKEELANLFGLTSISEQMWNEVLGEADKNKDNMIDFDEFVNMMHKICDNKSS
Summary of the method: (§1)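 ATP consumption by recombinant P. falciparum CDPK4 or CDPK1 measured as residual ATP by Kinase-Glo luminescence, with 40 μM Syntide-2 substrate and 90 min incubation stopped with 5 mM EGTA. Single-point screen at 1 μM final, followed by dose-response; no-substrate wells as negative control.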

[5] = tested on: P. falciparum 3D7 cells; conditions: P. falciparum 3D7; downloaded from ChEMBL ref F.J. Gamo et al., Nature 2010; cited from earlier work
[6] = tested on: HepG2 cells; conditions: HepG2 cells; downloaded from ChEMBL ref F.J. Gamo et al., Nature 2010; cited from earlier work
[7] = molecular target: T2, Plasmodium falciparum calcium-dependent protein kinase 4 (CDPK4) (Plasmodium falciparum, UniProt Q8IBS5); assay: CDPK4 Kinase-Glo ATP-consumption screen and dose-response; format: biochemical; conditions: hits below 1 uM
T2 construct: 6-Histidine (N); made in house
T2 sequence (Q8IBS5 1-528): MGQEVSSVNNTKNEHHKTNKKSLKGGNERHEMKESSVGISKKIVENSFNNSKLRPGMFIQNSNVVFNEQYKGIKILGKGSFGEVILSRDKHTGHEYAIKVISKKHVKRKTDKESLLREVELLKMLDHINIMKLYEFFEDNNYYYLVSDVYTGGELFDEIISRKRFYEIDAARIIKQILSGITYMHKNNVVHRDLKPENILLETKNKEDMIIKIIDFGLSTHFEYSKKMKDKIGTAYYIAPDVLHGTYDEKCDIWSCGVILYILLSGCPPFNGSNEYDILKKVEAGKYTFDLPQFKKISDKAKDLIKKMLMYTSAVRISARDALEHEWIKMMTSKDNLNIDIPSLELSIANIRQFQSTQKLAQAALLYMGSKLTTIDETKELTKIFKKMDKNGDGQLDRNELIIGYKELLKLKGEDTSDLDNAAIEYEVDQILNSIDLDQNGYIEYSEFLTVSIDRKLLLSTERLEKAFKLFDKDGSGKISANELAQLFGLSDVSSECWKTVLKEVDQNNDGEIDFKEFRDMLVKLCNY
Summary of the method: as §1

[8] = tested on: Plasmodium falciparum mitogen-associated protein kinase 2 (MAPK2/MAP2); assay: MAPK2 Kinase-Glo ATP-consumption screen; format: biochemical; conditions: concentrations of 10–30 μM
Procedure: Biochemical assays were performed in white 384-well plates (Nunc). Liquid transfers were done manually with 8-channel pipets. Compounds were initially tested in a single-point screen (final concentration 1 μM). […] The catalytic activity of each kinase was considered proportional to ATP consumed, as determined from measurements of residual [ATP] with the luciferase-based reagent Kinase-Glo (Promega) following incubation. Luminescence (proportional to residual [ATP]) was measured on the plate readers FLx800 (BioTek Instruments, Winooski, VT, USA) and MicroBeta^2 (PerkinElmer, Waltham, MA, USA). Incubation times were chosen to ensure near-complete ATP depletion in the absence of inhibition, thus maximizing the difference in signal between inhibited and uninhibited wells.
Final concentrations were 1 μM ATP, 0.5 mM DTT, 1 mM MgCl2, 0.5 mg/mL BSA, and 10 μg/ml MAP2 in a buffer of 50 mM HEPES (pH 7.0). 0.5 mg/mL histone III-S served as the substrate; 100 μM AMP-PNP, an ATP analog, was used as a control inhibitor. Incubation time was 4 hours.

[9] = molecular target: T3, Plasmodium falciparum protein kinase 6 (PK6) (Plasmodium falciparum, UniProt Q8IDW1); assay: biochemical; conditions: hits below 1 uM; read-out: PK6 IC50
T3 construct: 6-Histidine (N); made in house
T3 sequence (Q8IDW1 1-305): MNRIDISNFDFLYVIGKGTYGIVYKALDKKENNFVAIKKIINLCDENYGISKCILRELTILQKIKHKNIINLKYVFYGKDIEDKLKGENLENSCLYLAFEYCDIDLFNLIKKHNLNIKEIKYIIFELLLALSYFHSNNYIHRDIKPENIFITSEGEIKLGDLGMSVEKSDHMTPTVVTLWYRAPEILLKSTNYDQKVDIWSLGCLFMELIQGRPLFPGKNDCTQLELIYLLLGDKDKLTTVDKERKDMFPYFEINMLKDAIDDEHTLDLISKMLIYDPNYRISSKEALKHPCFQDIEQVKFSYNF

| IC50 [3] [µM] | IC50 [4] [µM] | IC50 [7] [µM] | IC50 [9] [µM] | Structure (SMILES) | PCT_INHB_DD2 [1] | PCT_INHIB_3D7_PFLDH [2] | PCT_IHB_3D7 [5] | pXC50_3D7 [5] | PCT_INHIB_HEPG2 [6] | Inhibition of MAPK2 (tested as possible control inhibitor) [8] |
| --- | --- | --- | --- | --- | --- | --- | --- | --- | --- | --- |
| 0.131 | 0.429 | 0.086 | 0.302 | CCN(CC)CCCOc1ccc(Nc2nccc(-c3c(-c4cccc(NC(=O)c5c(F)cccc5F)c4)nn4ccccc34)n2)cc1F [TCMDC-135920] | 99 | 0 | 100 | 6.39 | 86 |  |
| > 10 | 0.152 | 0.853 |  | COCCOc1ccc(Nc2nccc(-c3c(-c4cccc(NC(=O)c5c(F)cccc5F)c4)nn4ccccc34)n2)cc1Cl [TCMDC-135955] | 97 | 4 | 99 | 6.448 | 53 |  |
| 0.042 | 0.013 | 0.433 |  | CC(C)(CN)c1cc(-c2ccc(Cl)c(O)c2)c(-c2ccncc2)o1.Cl [TCMDC-141334] | 97 | 7 | 92 | 5.944 | 44 |  |
| > 10 | 0.092 | 0.311 |  | O=C(Nc1cccc(-c2nn3ccccc3c2-c2ccnc(Nc3ccc(C(=O)N4CCOCC4)cc3)n2)c1)c1c(F)cccc1F [TCMDC-135910] | 97 | 4 | 99 | 6.417 | 72 |  |
| > 10 | 0.164 | 0.612 |  | O=C(Nc1cccc(-c2nn3ccccc3c2-c2ccnc(Nc3cccc(-c4cnco4)c3)n2)c1)C1CCCCC1 [TCMDC-135769] | 99 | 0 | 95 | 6.584 | 71 |  |
| > 10 | 0.05 | 0.065 | 0.105 | CS(=O)(=O)Cc1ccc(Nc2nccc(-c3c(-c4cccc(C(=O)Nc5c(F)cccc5F)c4)nn4ccccc34)n2)cc1 [TCMDC-135742] | 92 | 0 | 96 | 6.274 | 85 |  |
| > 10 | 0.037 | 0.067 | 0.139 | CS(=O)(=O)Cc1ccc(Nc2nccc(-c3c(-c4cccc(NC(=O)C5CCCCC5)c4)nn4ncccc34)n2)cc1 [TCMDC-135812] | 99 | 0 | 98 | 6.697 | 31 |  |
| > 10 | 0.159 | 0.637 |  | CC(C)(C)CNCC(C)(C)c1nc(-c2ccc(Cl)c(O)c2)c(-c2ccncc2)[nH]1.Cl [TCMDC-140549] | 98 | 5 | 100 | 6.221 | 42 |  |

Continued, compound first:

| Structure (SMILES) | IC50 [3] [µM] | IC50 [4] [µM] | IC50 [7] [µM] | IC50 [9] [µM] | PCT_INHB_DD2 [1] | PCT_INHIB_3D7_PFLDH [2] | PCT_IHB_3D7 [5] | pXC50_3D7 [5] | PCT_INHIB_HEPG2 [6] | Inhibition of MAPK2 (tested as possible control inhibitor) [8] |
| --- | --- | --- | --- | --- | --- | --- | --- | --- | --- | --- |
| CCn1c(-c2nonc2N)nc2c(-c3cccc(NC(=O)Nc4ccccc4OC)c3)ncc(OCCCN)c21.O=C(O)C(F)(F)F [TCMDC-136190] | 0.783 | 0.032 | 0.706 |  | 58 | 0 | 92 | 5.998 | 84 |  |
| O=C1Nc2ccc3ncsc3c2/C1=C/Nc1ccc(S(=O)(=O)Nc2ccccn2)cc1 [GW8510] |  |  |  |  |  |  |  |  |  | None gave consistent inhibition |
| NC1=NC(=O)/C(=C2\CCNC(=O)c3[nH]c(Br)cc32)N1 [hymenialdisine] |  |  |  |  |  |  |  |  |  | None gave consistent inhibition |
| CCn1c(-c2nonc2N)nc2c(-c3cccc(NC(=O)Nc4ccccc4Cl)c3)ncc(OCCCN)c21.O=C(O)C(F)(F)F [TCMDC-136192] | 0.566 | 0.072 | 0.138 |  | 74 | 0 | 99 | 6.173 | 2 |  |
| O=C(Nc1cccc(-c2nn3ncccc3c2-c2ccnc(Nc3ccccc3)n2)c1)c1c(F)cccc1F [TCMDC-134631] | > 10 | 0.039 | 0.352 |  | 96 | 0 | 98 | 6.139 | 51 |  |
| O=C(NCC(c1ccc(C(F)(F)F)cc1)N1CCCC1)c1cc(-c2ccncc2)c(-c2cccc(O)c2)o1.O=C(O)C(F)(F)F (stereo not drawn) [TCMDC-135665] | 7.64 | 0.283 | 0.178 |  | 53 | 0 | 95 | 5.973 | 9 |  |
| CCn1c(-c2nonc2N)nc2c(-c3cccc(NC(=O)Nc4cccc(C(F)(F)F)c4)c3)ncc(OCCCN)c21.O=C(O)C(F)(F)F [TCMDC-136178] | 2.08 | 0.015 | 0.342 |  | 70 | 2 | 95 | 6.014 | 21 |  |
| O=C(Nc1cccc(-c2nn3ncccc3c2-c2ccnc(Nc3cccc(-c4cnco4)c3)n2)c1)c1c(F)cccc1F [TCMDC-135550] | > 10 | 0.023 | 0.145 |  | 98 | 2 | 97 | 6.779 | 96 |  |
| COc1cc(Nc2nccc(-c3c(-c4cccc(NC(=O)c5c(F)cccc5F)c4)nn4ccccc34)n2)cc(OC)c1OC [TCMDC-135668] | > 10 | 0.06 | 0.077 |  | 98 | 4 | 98 | 7.112 | 74 |  |
| CC(c1cccc(Nc2nccc(-c3c(-c4cccc(NC(=O)c5c(F)cccc5F)c4)nn4ncccc34)n2)c1)S(C)(=O)=O (stereo not drawn) [TCMDC-135696] | > 10 | 0.095 | 0.024 | 0.375 | 98 | 4 | 98 | 7.341 | 79 |  |
| COc1cc(Nc2nccc(-c3c(-c4cccc(NC(=O)c5c(F)cccc5F)c4)nn4ncccc34)n2)cc(OC)c1OC [TCMDC-135684] | > 10 |  | 0.045 |  | 97 | 1 | 98 | 7.4867 | 96 |  |
| CC(=O)Nc1cccc(Nc2nccc(-c3c(-c4cccc(NC(=O)c5c(F)cccc5F)c4)nn4ncccc34)n2)c1 [TCMDC-135548] | 0.524 | 0.015 | 0.026 | 0.144 | 51 | 5 | 96 | 6.736 | 83 |  |
